In ChEMBL document CHEMBL6182828, “Medicinal chemistry-based perspectives on thiophene and its derivatives: exploring structural insights to discover plausible druggable leads” (RSC Med Chem, 2025):
Values after ≈ are worked out from the molar mass of the structure shown.

How the values were obtained:
[1] = Antioxidant activity assessed as ROS scavenging activity relative to control; assay type: functional; conditions: dose or concentration not given here
[2] = tested on: Mus musculus; experiment: Anti-diabetic activity against 16 hrs fasted KK/Ay mouse assessed as reduced blood glucose level at 2g/kg, po measured after 2 hrs by oral pyruvate tolerance test; assay type: functional
[3] = tested on: MCF7; experiment: Antiproliferative activity against human MCF7 cells; assay type: functional, cell-based
[4] = tested on: Bacillus subtilis; experiment: Antibacterial activity against Bacillus subtilis ATCC 6633 assessed as zone of inhibition; assay type: functional
[5] = tested on: Staphylococcus aureus; experiment: Antibacterial activity against Staphylococcus aureus ATCC 25923 assessed as zone of inhibition; assay type: functional
[6] = Half life in po dosed human; assay type: ADME, organism-based; conditions: in vivo
[7] = Elimination half life in human at 5 mg/kg, po; assay type: ADME, organism-based; conditions: in vivo, read-out: LambdaZ (converted)
[8] = tested on: MCF7; experiment: Growth inhibition of human MCF7 cells incubated for 48 hrs by SRB assay; assay type: functional
[9] = tested on: SF-268; experiment: Growth inhibition of human SF-268 cells incubated for 48 hrs by SRB assay; assay type: functional
[10] = tested on: NCI-H460; experiment: Growth inhibition of human NCI-H460 cells incubated for 48 hrs by SRB assay; assay type: functional
[11] = target: T1, Polyunsaturated fatty acid 5-lipoxygenase (Homo sapiens, UniProt P09917); experiment: Inhibition of 5-LOX (unknown origin)
T1 sequence (P09917 whole entry): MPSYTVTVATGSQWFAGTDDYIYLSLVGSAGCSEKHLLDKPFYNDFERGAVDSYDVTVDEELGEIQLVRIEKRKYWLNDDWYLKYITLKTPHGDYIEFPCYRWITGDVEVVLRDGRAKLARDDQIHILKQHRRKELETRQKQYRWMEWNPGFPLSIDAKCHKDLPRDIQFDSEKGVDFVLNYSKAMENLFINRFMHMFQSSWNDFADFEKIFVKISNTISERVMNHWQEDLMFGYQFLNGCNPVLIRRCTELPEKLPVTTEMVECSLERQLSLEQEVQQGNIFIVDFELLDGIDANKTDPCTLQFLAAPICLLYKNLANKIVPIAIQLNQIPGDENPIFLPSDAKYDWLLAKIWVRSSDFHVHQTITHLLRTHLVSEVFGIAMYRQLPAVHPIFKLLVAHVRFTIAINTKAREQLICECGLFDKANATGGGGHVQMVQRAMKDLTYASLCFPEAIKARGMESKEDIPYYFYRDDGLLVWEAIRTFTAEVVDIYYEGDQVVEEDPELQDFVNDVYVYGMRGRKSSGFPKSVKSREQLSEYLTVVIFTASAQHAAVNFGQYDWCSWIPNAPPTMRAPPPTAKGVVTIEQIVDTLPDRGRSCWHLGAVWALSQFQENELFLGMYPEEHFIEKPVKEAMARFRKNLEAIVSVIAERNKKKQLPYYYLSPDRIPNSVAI

[12] = target: Vascular endothelial growth factor receptor 2 (Homo sapiens, UniProt P35968); experiment: Inhibition of VEGFR2 (unknown origin)
[13] = target: Epidermal growth factor receptor (Homo sapiens, UniProt P00533); experiment: Inhibition of EGFR (unknown origin)
[14] = tested on: MDA-MB-231; experiment: cells; conditions: Homo sapiens
Description: Cytotoxicity against human MDA-MB-231 cells assessed as reduction in cell viability by MTT assay

[15] = tested on: A549; experiment: cells; conditions: Homo sapiens
Description: Cytotoxicity against human A549 cells assessed as reduction in cell viability by MTT assay

[16] = tested on: PC-3; experiment: cells; conditions: Homo sapiens
Description: Cytotoxicity against human PC-3 cells assessed as reduction in cell viability by MTT assay

[17] = Antioxidant activity assessed as DPPH radical scavenging activity at 10 uM incubated for 30 mins by absorbance based assay relative to control; assay type: functional
[18] = target: Amine oxidase [flavin-containing] B (Homo sapiens, UniProt P27338); experiment: Inhibition of human MAO-B measured after 25 mins by Amplex Red reagent based fluorescence analysis
[19] = Half life in human, iv; assay type: ADME
[20] = tested on: Leishmania major; experiment: Antileishmanial activity against Leishmania major promastigotes MHOM/IL/80/Friedlin expressing firefly luciferase infected in rhesus monkey LLC-MK2 cells assessed as reduction in parasite growth incubated for 72 hrs by luciferase based luminescence analysis; assay type: functional, organism-based; conditions: LLC-MK2, 72 h
[21] = Antioxidant activity assessed as DPPH radical scavenging activity; assay type: functional

Vascular endothelial growth factor receptor 2, sequence (P35968 whole entry): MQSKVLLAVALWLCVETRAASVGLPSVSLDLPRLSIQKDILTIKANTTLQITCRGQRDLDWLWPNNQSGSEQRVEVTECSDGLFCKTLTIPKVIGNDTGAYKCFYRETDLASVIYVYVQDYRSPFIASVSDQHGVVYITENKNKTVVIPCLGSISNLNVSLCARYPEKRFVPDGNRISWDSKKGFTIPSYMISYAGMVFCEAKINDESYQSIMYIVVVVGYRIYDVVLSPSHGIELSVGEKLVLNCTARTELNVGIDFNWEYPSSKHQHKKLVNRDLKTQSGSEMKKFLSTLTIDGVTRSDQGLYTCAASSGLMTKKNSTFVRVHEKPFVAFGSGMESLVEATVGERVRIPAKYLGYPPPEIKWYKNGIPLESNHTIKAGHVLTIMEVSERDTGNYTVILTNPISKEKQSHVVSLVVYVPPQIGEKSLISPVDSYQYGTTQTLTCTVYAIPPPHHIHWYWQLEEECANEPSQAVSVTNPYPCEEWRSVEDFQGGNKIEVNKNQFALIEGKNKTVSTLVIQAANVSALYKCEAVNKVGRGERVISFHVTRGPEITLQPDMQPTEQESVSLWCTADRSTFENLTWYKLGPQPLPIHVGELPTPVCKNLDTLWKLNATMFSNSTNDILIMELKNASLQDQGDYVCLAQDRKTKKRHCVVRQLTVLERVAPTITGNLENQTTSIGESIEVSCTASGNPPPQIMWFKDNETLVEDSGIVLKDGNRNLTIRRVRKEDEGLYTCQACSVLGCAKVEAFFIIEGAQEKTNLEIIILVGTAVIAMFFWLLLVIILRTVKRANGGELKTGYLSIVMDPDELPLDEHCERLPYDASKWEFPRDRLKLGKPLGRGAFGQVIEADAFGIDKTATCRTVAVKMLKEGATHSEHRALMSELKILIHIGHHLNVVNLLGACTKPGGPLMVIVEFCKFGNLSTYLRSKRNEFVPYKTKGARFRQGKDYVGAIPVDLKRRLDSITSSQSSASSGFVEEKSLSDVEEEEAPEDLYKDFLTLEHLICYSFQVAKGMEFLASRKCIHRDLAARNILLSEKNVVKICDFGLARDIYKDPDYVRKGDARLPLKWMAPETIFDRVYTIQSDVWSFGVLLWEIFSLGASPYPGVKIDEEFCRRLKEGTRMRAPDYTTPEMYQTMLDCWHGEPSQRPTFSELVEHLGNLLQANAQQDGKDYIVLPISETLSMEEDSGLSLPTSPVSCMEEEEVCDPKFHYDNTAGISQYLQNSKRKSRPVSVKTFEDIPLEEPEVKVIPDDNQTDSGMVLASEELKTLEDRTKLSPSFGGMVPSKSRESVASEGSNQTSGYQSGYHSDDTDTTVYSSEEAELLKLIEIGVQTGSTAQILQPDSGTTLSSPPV
Epidermal growth factor receptor, sequence (P00533 whole entry): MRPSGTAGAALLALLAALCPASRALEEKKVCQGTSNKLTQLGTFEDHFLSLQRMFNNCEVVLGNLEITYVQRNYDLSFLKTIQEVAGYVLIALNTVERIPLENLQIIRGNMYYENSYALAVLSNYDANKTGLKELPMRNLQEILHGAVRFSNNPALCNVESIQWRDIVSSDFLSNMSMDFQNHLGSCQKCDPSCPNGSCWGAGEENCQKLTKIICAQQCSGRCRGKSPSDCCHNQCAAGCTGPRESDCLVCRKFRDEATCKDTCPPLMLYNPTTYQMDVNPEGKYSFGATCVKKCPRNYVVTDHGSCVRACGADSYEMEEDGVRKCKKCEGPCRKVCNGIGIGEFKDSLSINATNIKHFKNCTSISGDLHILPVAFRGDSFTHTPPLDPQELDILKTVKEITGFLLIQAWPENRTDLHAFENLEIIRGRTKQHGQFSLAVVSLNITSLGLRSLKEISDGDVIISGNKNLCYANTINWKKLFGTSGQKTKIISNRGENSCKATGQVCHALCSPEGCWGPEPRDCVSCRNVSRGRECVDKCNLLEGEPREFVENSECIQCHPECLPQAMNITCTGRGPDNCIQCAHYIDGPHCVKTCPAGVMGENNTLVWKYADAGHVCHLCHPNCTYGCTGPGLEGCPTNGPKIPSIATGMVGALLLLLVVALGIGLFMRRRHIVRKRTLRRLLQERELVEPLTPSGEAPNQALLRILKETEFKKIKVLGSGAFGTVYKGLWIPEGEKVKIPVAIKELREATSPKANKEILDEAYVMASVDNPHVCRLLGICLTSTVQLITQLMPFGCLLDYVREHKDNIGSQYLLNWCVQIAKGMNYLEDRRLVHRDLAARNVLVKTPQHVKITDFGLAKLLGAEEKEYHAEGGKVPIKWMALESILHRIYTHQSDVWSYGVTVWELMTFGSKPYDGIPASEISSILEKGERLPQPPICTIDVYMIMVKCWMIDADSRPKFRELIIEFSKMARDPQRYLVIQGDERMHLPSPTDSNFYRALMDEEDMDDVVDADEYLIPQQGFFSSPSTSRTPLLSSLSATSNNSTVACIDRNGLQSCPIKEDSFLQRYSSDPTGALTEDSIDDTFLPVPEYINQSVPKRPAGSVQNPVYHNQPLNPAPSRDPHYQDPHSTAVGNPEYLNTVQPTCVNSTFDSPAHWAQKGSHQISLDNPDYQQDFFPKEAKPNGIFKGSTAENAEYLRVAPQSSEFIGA
Amine oxidase [flavin-containing] B, sequence (P27338 whole entry): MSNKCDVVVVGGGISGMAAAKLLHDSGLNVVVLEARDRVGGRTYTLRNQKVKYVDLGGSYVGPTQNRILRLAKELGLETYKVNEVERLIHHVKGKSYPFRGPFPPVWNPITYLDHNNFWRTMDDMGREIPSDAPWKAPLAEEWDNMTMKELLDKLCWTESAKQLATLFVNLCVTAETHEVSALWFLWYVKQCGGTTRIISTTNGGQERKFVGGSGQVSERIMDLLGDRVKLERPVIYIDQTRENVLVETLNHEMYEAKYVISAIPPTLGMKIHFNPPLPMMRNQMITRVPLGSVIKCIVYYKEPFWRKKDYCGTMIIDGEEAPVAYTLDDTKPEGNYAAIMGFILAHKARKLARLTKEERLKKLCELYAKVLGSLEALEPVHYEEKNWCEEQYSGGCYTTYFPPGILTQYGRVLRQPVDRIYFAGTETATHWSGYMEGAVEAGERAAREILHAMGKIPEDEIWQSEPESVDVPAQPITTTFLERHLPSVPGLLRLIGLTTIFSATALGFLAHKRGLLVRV

COC1=C(Nc2sc3c(c2C(N)=O)CCCC3)C(=O)c2ccccc2C1=O
inhibition [1]: 96%

CC(=O)CC(=O)c1cc2ccccc2s1
Activity [2]: <15.6 mmol/L

Oc1ccc(Nc2nnnc3sc4c(c23)CCC4)cc1
IC50 ([3]; mcf7): 38.73 µM

O=C(CSc1nnc(-c2sc3ccccc3c2Cl)[nH]1)c1ccc(F)cc1
inhibition zone (IZ) [4]: 16 mm
inhibition zone (IZ) [5]: 15 mm

CCOC(=O)c1c(NC(=O)c2c(NC(=O)CC#N)sc3c2CCC3)sc2c1CCCC2
inhibition [1]: 64.1%

CN1C(C(=O)Nc2ccccn2)=C(O)c2sccc2S1(=O)=O [TENOXICAM]
half-life [6]: 72 h

Cc1ccc([C@@H]2O[C@H](CO)[C@@H](O)[C@H](O)[C@H]2O)cc1Cc1ccc(-c2ccc(F)cc2)s1 [CANAGLIFLOZIN ANHYDROUS]
half-life [7]: 10.6 h

Cc1nc2ccc(CN(C)c3ccc(C(=O)N[C@@H](CCC(=O)O)C(=O)O)s3)cc2c(=O)[nH]1 [RALTITREXED]
half-life [6]: 192 h

N#Cc1c(-n2c(N)c(C#N)c(N)c(/N=N/c3ccccc3)c2=O)sc2c1CCCC2
GI50 [8]: 2 µM
GI50 [9]: 4 µM
GI50 [10]: 8.3 µM

Cc1ccc(-c2cc(C(F)(F)F)nn2-c2ccc(S(N)(=O)=O)cc2)cc1 [CELECOXIB]
IC50 [11]: 5.64 µM

CC(C(=O)O)c1ccc(C(=O)c2ccccc2)s1 (stereo not given) [TIAPROFENIC ACID]
half-life [6]: 1.5 h

COc1cc2ncn(-c3cc(OCc4ccccc4C(F)(F)F)c(C(N)=O)s3)c2cc1OC [GW843682X]
IC50 [11]: 10 µM

Cc1c(NC(=O)Nc2ccc(OC(F)(F)F)cc2)sc2ccccc12
IC50 [12]: 0.0113 µM
IC50 [13]: 0.0466 µM

N#Cc1c(N)sc(C(=O)NC2=NN=C(O)/C2=C(\C=C\c2ccccc2)c2ccccc2)c1N
IC50 [12]: 0.32 µM
IC50 [13]: 0.32 µM

O=C(C[S+]([O-])C(F)(F)F)c1cc2ccccc2s1 (stereo not given)
Activity [2]: <10 mmol/L

O=C(O[C@H]1C[N+]2(CCCOc3ccccc3)CCC1CC2)C(O)(c1cccs1)c1cccs1
half-life [6]: 24 h

COc1cccc2c1C(=O)c1c(O)c3c(c(O)c1C2=O)C[C@@](O)(C(=O)CO)C[C@@H]3O[C@H]1C[C@H](N)[C@H](O)[C@H](C)O1 [DOXORUBICIN]
IC50 [14]: 0.98 µM
IC50 [15]: 0.7 µM
IC50 [16]: 0.7 µM

Cc1ccc(NCc2ccc(CNc3ccc(C)cc3)o2)cc1
IC50 [14]: 0.88 µM
IC50 [15]: 0.68 µM
IC50 [16]: 1.03 µM

Nc1sc2c(c1C(=O)Nc1cnc3ccccc3c1)CCCC2
IC50 ([3]; Homo sapiens, MCF7, read-out: IC50): 33.1 µM

CC(=O)c1ccc(NC(=O)c2sc(Nc3ccccc3)c(C(=O)Nc3ccccc3)c2N)cc1
inhibition [17]: 62%

C/C(=N\N=C1/CS(=O)(=O)N(C)c2ccccc21)c1ccc(Br)s1
IC50 [18]: 1.03 µM

COc1ccsc1CNCC[C@@]1(c2ccccn2)CCOC2(CCCC2)C1 [OLICERIDINE]
half-life [19]: 1.3 h

COc1ccc2c3ccnc(C)c3n(CC3CC(c4cccs4)=NO3)c2c1 (stereo not given)
IC50 [11]: 29.2 µM

CCOC(=O)c1c(NC(=O)c2cccc(C(F)(F)F)c2F)sc2c1CC(C)(C)NC2(C)C
EC50 [20]: 0.09 µM

COc1cccc(NC(=O)Cn2cc(CN3CNc4sccc4C3=O)nn2)c1
IC50 [21]: 30.16 µg/mL (≈ 75.7 µM)

CNCC[C@H](Oc1cccc2ccccc12)c1cccs1 [DULOXETINE]
half-life [6]: 12 h
